Laboratory results taken from patent publication US20240270762A1, “PENICILLIN-BINDING PROTEIN INHIBITORS” (priority 2021, published 2024).
≈ marks a conversion by molar mass, not a printed value.

How the values were obtained:
K. pneumoniae UMM = assay: microbe, parasite or virus in culture; type: cell-based; conditions: Klebsiella pneumoniae, read-out: MIC K. pneumoniae UMM
[1] = target: T1, PBP2 from Neisseria gonorrhoeae (FA19) (Neisseria gonorrhoeae, UniProt P08149); assay: Bocillin-FL fluorescence polarization competition binding, N. gonorrhoeae PBP2; conditions: fluorescence polarization competition binding assay using Bocillin-FL, read-out: N. gonorrhoeae PBP2 Potency
T1 construct: made in house
Method in brief: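 Fluorescence polarization competition with 0.1 μM Bocillin-FL (fluorescent penicillin V) against 0.25 μM N. gonorrhoeae FA19 PBP2 in 50 mM Hepes pH 8.0, 300 mM NaCl, 10% glycerol. Boronic acid inhibitors were preincubated with PBP, then Bocillin-FL was added and FP read (490/520 nm) up to 60 min. EC50 is the concentration halving PBP-bound Bocillin-FL.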

K. pneumoniae 848844 = assay: microbe, parasite or virus in culture; type: cell-based; conditions: Klebsiella pneumoniae, 848844, read-out: MIC K. pneumoniae 848844
E. coli AG100 = assay: microbe, parasite or virus in culture; type: cell-based; conditions: Escherichia coli, AG100, read-out: MIC E. coli AG100
E. coli D22 = assay: microbe, parasite or virus in culture; type: cell-based; conditions: Escherichia coli, D22, read-out: MIC E. coli D22
E. coli 901C = assay: microbe, parasite or virus in culture; type: cell-based; conditions: Escherichia coli, read-out: MIC E. coli 901C
A. baumannii ATCC 19606 = assay: microbe, parasite or virus in culture; type: cell-based; conditions: Acinetobacter baumannii, ATCC19606, read-out: MIC, A. baumannii ATCC 19606
N. gonorrhoeae WHO X = assay: Liquid broth MIC in Fastidious broth; conditions: Neisseria gonorrhoeae, read-out: Minimum Inhibitory Concentration (MIC), N. gonorrhoeae WHO X
E. coli ATCC 25922 = assay: microbe, parasite or virus in culture; type: cell-based; conditions: Escherichia coli, ATCC25922, read-out: MIC E. coli 25922
N. gonorrhoeae WHO Z = assay: Liquid broth MIC in Fastidious broth; conditions: Neisseria gonorrhoeae, read-out: Minimum Inhibitory Concentration (MIC), N. gonorrhoeae WHO Z
P. aeruginosa ATCC 35151 = assay: microbe, parasite or virus in culture; type: cell-based; conditions: Pseudomonas aeruginosa, ATCC35151, read-out: MIC P. aeruginosa ATCC 35151
N. gonorrhoeae FA1090 = assay: Liquid broth MIC in Fastidious broth; conditions: Neisseria gonorrhoeae, FA1090, read-out: Minimum Inhibitory Concentration (MIC), N. gonorrhoeae FA 1090
N. gonorrhoeae WHO K = assay: Liquid broth MIC in Fastidious broth; conditions: Neisseria gonorrhoeae, read-out: Minimum Inhibitory Concentration (MIC), N. gonorrhoeae WHO K
[2] = system: P. aeruginosa (ΔmexAB-oprM); assay: Broth microdilution MIC in CAMHB; type: cell-based; conditions: Pseudomonas aeruginosa; read-out: MIC P. aeruginosa ΔmexAB-oprM
N. gonorrhoeae WHO M = assay: Liquid broth MIC in Fastidious broth; conditions: Neisseria gonorrhoeae, read-out: Minimum Inhibitory Concentration (MIC), N. gonorrhoeae WHO M
N. gonorrhoeae MS11 = assay: Liquid broth MIC in Fastidious broth; conditions: Neisseria gonorrhoeae, MS11, read-out: Minimum Inhibitory Concentration (MIC), N. gonorrhoeae MS11
Experimental: Additional antibacterial testing of the series was performed in 8 reference strains of N. gonorrhoeae (ATCC 49226, FA1090, MS 11, WHO G, WHO L, WHO M, WHO K, WHO X, WHO Z, WHO Q, CDC-0197). ATCC 49226, FA1090, MS11, WHO G, WHO L, and WHO M produce wild type or wild-type like PBP2. WHO K, WHO X, WHO Z, WHO Q, and CDC-0197 produce mosaic PBP2. Liquid broth-based assays were used for antibacterial testing of PBP inhibitors in Neisseria gonorrhoeae. Briefly, cryo-preserved bacterial cultures of clinical strains were streaked for isolation on Chocolate Agar (72 g/L (2×) GC Agar Base (BD #228950) and 2% (2×) Hemoglobin was autoclaved at 121° C. for 20 minutes to sterilize. Once cooled to ˜50° C. the 2×GC Agar Base and 2× Hemoglobin solutions are combined and 1% IsoVitaleX Enrichment (BD #211876) was added to the solution). Strains were incubated at 36° C. and 5% CO2 to allow growth of colonies, 24 hours before inoculum preparation. 2-fold serial dilutions of test compounds were conducted in a 96 well plate with a final volume of 75 μL per well at 2-fold the final desired concentration in Fastidious broth (Remel #R07664). For preparation of assay inoculum, a direct suspension was prepared by aseptically swabbing 10-15 colonies from agar plates into culture tubes containing 2 mL of fresh sterile saline. After the dilution plates were set up, direct suspensions were then diluted in a cuvette containing sterile saline and the optical density was measured at 600 nm. Inocula were diluted such that 75 μL of this culture in Fastidious broth results in a starting bacterial concentration of 5×10^5 CFU/mL when added to the dilution plates. The plates were incubated for ˜24 hours at 36° C. and 5% CO2.

K. pneumoniae SI-117 = assay: microbe, parasite or virus in culture; type: cell-based; conditions: Klebsiella pneumoniae, SI117, read-out: MIC K. pneumoniae SI-117
P. aeruginosa ATCC 27853 = assay: microbe, parasite or virus in culture; type: cell-based; conditions: Pseudomonas aeruginosa, ATCC27853, read-out: MIC P. aeruginosa ATCC 27853

T1 sequence (P08149 whole entry): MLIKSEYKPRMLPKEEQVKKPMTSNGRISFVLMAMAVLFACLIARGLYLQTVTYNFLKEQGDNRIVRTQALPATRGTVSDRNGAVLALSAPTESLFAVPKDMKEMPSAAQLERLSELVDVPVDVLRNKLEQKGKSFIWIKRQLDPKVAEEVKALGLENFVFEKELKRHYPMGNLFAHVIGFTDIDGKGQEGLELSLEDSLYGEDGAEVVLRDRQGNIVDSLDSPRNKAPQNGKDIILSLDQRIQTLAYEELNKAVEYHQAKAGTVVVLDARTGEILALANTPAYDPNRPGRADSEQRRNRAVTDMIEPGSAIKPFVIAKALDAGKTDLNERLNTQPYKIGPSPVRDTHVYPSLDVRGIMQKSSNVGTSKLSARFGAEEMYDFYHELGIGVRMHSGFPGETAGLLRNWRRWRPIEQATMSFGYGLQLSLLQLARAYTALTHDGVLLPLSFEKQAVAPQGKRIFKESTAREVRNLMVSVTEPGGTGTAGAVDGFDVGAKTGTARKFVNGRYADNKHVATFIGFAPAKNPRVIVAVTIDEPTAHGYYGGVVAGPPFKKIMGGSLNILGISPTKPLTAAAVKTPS

| Compound | MIC (K. pneumoniae UMM) [µg/mL] | EC50 [1] [µM] | MIC (K. pneumoniae 848844) [µg/mL] | MIC (E. coli AG100) [µg/mL] | MIC (E. coli D22) [µg/mL] | MIC (E. coli 901C) [µg/mL] | MIC (A. baumannii ATCC 19606) [µg/mL] | MIC (N. gonorrhoeae WHO X) [µg/mL] | MIC (E. coli ATCC 25922) [µg/mL] | MIC (N. gonorrhoeae WHO Z) [µg/mL] | MIC (P. aeruginosa ATCC 35151) [µg/mL] | MIC (N. gonorrhoeae FA1090) [µg/mL] | MIC (N. gonorrhoeae WHO K) [µg/mL] | MIC [2] [µg/mL] | MIC (N. gonorrhoeae WHO M) [µg/mL] | MIC (N. gonorrhoeae MS11) [µg/mL] | MIC (K. pneumoniae SI-117) [µg/mL] | MIC (P. aeruginosa ATCC 27853) [µg/mL] |
| --- | --- | --- | --- | --- | --- | --- | --- | --- | --- | --- | --- | --- | --- | --- | --- | --- | --- | --- |
| NC(C(=O)N[C@H]1Cc2ccc(F)c(C(=O)O)c2OB1O)c1ccc(P(=O)(O)O)cc1 (stereo partly drawn) [Example 14, (3R)-3-(2-amino-2-(4-phosphonophenyl)acetamido)-7-fluoro-2-hydroxy-3,4-dihydro-2H-benzo[e][1,2]oxaborinine-8-carboxylic acid] | > 128 | 50 to 250 | > 128 | > 128 | > 128 | > 128 | > 128 | > 64 | > 128 | > 64 | > 128 | > 64 | > 64 | > 128 | > 64 | > 64 | > 128 | > 128 |
| CS(=O)(=O)N1CCN(C(=O)NC(C(=O)N[C@H]2Cc3cccc(C(=O)O)c3OB2O)c2ccc(P(=O)(O)O)c(O)c2)C1=O (stereo partly drawn) [Example 17, (3R)-2-hydroxy-3-(2-(3-hydroxy-4-phosphonophenyl)-2-(3-(methylsulfonyl)-2-oxoimidazolidine-1-carboxamido)acetamido)-3,4-dihydro-2H-benzo[e][1,2]oxaborinine-8-carboxylic acid] | 32 to 64 (≈ 51.1 to 102 µM) | < 10 | > 128 | 8 to 16 (≈ 12.8 to 25.5 µM) | 2 to 4 (≈ 3.19 to 6.39 µM) | < 1 | 2 to 4 (≈ 3.19 to 6.39 µM) | < 1 | 32 to 64 (≈ 51.1 to 102 µM) | < 1 | < 1 | < 1 | < 1 | 8 to 16 (≈ 12.8 to 25.5 µM) | < 1 | < 1 | > 128 | 32 to 64 (≈ 51.1 to 102 µM) |
| CS(=O)(=O)N1CCN(C(=O)NC(C(=O)N[C@H]2Cc3cccc(C(=O)O)c3OB2O)c2ccc(P(=O)(O)O)c(Cl)c2)C1=O (stereo partly drawn) [Example 11, (3R)-3-(2-(3-chloro-4-phosphonophenyl)-2-(3-(methylsulfonyl)-2-oxoimidazolidine-1-carboxamido)acetamido)-2-hydroxy-3,4-dihydro-2H-benzo[e][1,2]oxaborinine-8-carboxylic acid] | > 128 | < 10 | > 128 | 32 to 64 (≈ 49.6 to 99.3 µM) | 8 to 16 (≈ 12.4 to 24.8 µM) | < 1 | > 128 | 1 to 2 (≈ 1.55 to 3.1 µM) | 32 to 64 (≈ 49.6 to 99.3 µM) | < 1 | 8 to 16 (≈ 12.4 to 24.8 µM) | < 1 | < 1 | 32 to 64 (≈ 49.6 to 99.3 µM) | < 1 | < 1 | > 128 | > 128 |
| CN1CCCN(C(=O)NC(C(=O)N[C@H]2Cc3cccc(C(=O)O)c3OB2O)c2ccc(P(=O)(O)O)cc2)C1=O (stereo partly drawn) [Example 38, (3R)-2-hydroxy-3-(2-(3-methyl-2-oxohexahydropyrimidine-1-carboxamido)-2-(4-phosphonophenyl)acetamido)-3,4-dihydro-2H-benzo[e][1,2]oxaborinine-8-carboxylic acid] | > 128 | < 10 | > 128 | > 128 | 8 to 16 (≈ 14.3 to 28.6 µM) | 2 to 4 (≈ 3.57 to 7.14 µM) | > 128 | 16 to 32 (≈ 28.6 to 57.1 µM) | > 128 | 1 to 2 (≈ 1.78 to 3.57 µM) | 2 to 4 (≈ 3.57 to 7.14 µM) | < 1 | 4 to 8 (≈ 7.14 to 14.3 µM) | 32 to 64 (≈ 57.1 to 114 µM) | < 1 | 1 to 2 (≈ 1.78 to 3.57 µM) | > 128 | > 128 |
| CCN1CCN(C(=O)NC(C(=O)N[C@H]2Cc3cccc(C(=O)O)c3OB2O)c2ccc(S(=O)(=O)O)cc2)C(=O)C1=O (stereo partly drawn) [Example 189, (3R)-3-(2-(4-ethyl-2,3-dioxopiperazine-1-carboxamido)-2-(4-sulfophenyl)acetamido)-2-hydroxy-3,4-dihydro-2H-benzo[e][1,2]oxaborinine-8-carboxylic acid] | 32 to 64 (≈ 54.4 to 109 µM) | < 10 | > 128 | 32 to 64 (≈ 54.4 to 109 µM) | 2 to 4 (≈ 3.4 to 6.8 µM) | < 1 | > 128 | 4 to 8 (≈ 6.8 to 13.6 µM) | > 128 | 1 to 2 (≈ 1.7 to 3.4 µM) | < 1 | < 1 | 1 to 2 (≈ 1.7 to 3.4 µM) | 8 to 16 (≈ 13.6 to 27.2 µM) | < 1 | < 1 | > 128 | > 128 |
| O=C(O)c1cccc2c1OB(O)[C@@H](NC(=O)[C@H](NC(=O)N1CCNC1=O)c1ccc(P(=O)(O)O)cc1)C2 [Example 40, (R)-2-hydroxy-3-((R)-2-(2-oxoimidazolidine-1-carboxamido)-2-(4-phosphonophenyl)acetamido)-3,4-dihydro-2H-benzo[e][1,2]oxaborinine-8-carboxylic acid] | 32 to 64 (≈ 60.1 to 120 µM) | < 10 | > 128 | 32 to 64 (≈ 60.1 to 120 µM) | 2 to 4 (≈ 3.76 to 7.52 µM) | < 1 | 32 to 64 (≈ 60.1 to 120 µM) | 1 to 2 (≈ 1.88 to 3.76 µM) | 32 to 64 (≈ 60.1 to 120 µM) | < 1 | < 1 | < 1 | 1 to 2 (≈ 1.88 to 3.76 µM) | 8 to 16 (≈ 15 to 30.1 µM) | < 1 | < 1 | > 128 | 32 to 64 (≈ 60.1 to 120 µM) |
| CCN1CCN(C(=O)NC(C(=O)N[C@H]2Cc3cccc(C(=O)O)c3OB2O)c2ccc(CP(=O)(O)O)cc2)C(=O)C1=O (stereo partly drawn) [Example 20, (3R)-3-(2-(4-ethyl-2,3-dioxopiperazine-1-carboxamido)-2-(4-(phosphonomethyl)phenyl)acetamido)-2-hydroxy-3,4-dihydro-2H-benzo[e][1,2]oxaborinine-8-carboxylic acid] | 32 to 64 (≈ 53.1 to 106 µM) | < 10 | > 128 | 8 to 16 (≈ 13.3 to 26.6 µM) | 2 to 4 (≈ 3.32 to 6.64 µM) | < 1 | 32 to 64 (≈ 53.1 to 106 µM) | 1 to 2 (≈ 1.66 to 3.32 µM) | 8 to 16 (≈ 13.3 to 26.6 µM) | < 1 | < 1 | < 1 | 1 to 2 (≈ 1.66 to 3.32 µM) | 8 to 16 (≈ 13.3 to 26.6 µM) | < 1 | < 1 | > 128 | > 128 |
| O=C(NC(C(=O)N[C@H]1Cc2cccc(C(=O)O)c2OB1O)c1ccc(P(=O)(O)O)cc1)c1ccc(Cl)cn1 (stereo partly drawn) [Example 184, (3R)-3-(2-(5-chloropicolinamido)-2-(4-phosphonophenyl)acetamido)-2-hydroxy-3,4-dihydro-2H-benzo[e][1,2]oxaborinine-8-carboxylic acid] | > 128 | < 10 | > 128 | > 128 | 8 to 16 (≈ 14.3 to 28.6 µM) | < 1 | > 128 | 4 to 8 (≈ 7.15 to 14.3 µM) | > 128 | < 1 | 2 to 4 (≈ 3.57 to 7.15 µM) | < 1 | 1 to 2 (≈ 1.79 to 3.57 µM) | > 128 | < 1 | < 1 | > 128 | > 128 |
| Cn1cccc(C(=O)N[C@@H](C(=O)N[C@H]2Cc3cccc(C(=O)O)c3OB2O)c2ccc(P(=O)(O)O)cc2)c1=O (single isomer, unassigned) [Example 182] | > 128 | < 10 | > 128 | > 128 | 8 to 16 (≈ 14.4 to 28.8 µM) | 2 to 4 (≈ 3.6 to 7.2 µM) | > 128 | 16 to 32 (≈ 28.8 to 57.6 µM) | > 128 | 1 to 2 (≈ 1.8 to 3.6 µM) | < 1 | < 1 | 4 to 8 (≈ 7.2 to 14.4 µM) | 8 to 16 (≈ 14.4 to 28.8 µM) | < 1 | 1 to 2 (≈ 1.8 to 3.6 µM) | > 128 | > 128 |
